Where a SMILES comes first, the peptide text is derived from it. [ ]: non-standard residue; d: D form. αMeS = C[C](N)(CO)C(=O)O; hSer = N[CH](CCO)C(=O)O
What was measured:
T cells = assay: T cell proliferation (Test 1), thymidine uptake of Concanavalin A-treated T cells; assay type: cell-based, rat (female Fisher 344); details: Rattus norvegicus, 72 h, 3 days, untreated cells = 100, read-out: Rate of stimulating proliferation of T cells; for activity at 0.1 µg/mL: concentration of compound 0.1 μg/ml; for activity at 1 µg/mL: concentration of compound 1 μg/ml; for activity at 10 µg/mL: concentration of compound 10 μg/ml
Excerpt: Effects of the novel amino acid derivatives of the general formula (I) on the proliferation of T cells were investigated by the following procedure.
The spleens, which had been excised in sterility from female Fisher 344 rats (12-16 weeks old, purchased from CHARLES RIVER JAPAN, INC), were squeezed in RPMI 1640 medium (a product of NISSUI PHARMACEUTICAL CO., LTD.) supplemented with 10% of fetal bovine serum, followed by passage of the resulting cell suspension through a column containing nylon wool fibres, whereby a cell suspension containing an abundant amount of T cells was obtained. This cell suspension was diluted to a level of 1×10^6 cells/ml with addition of a medium of the same composition as above. The cell-containing medium so obtained was then added with 5 μg/ml of Concanavalin A (product of Pharmacia AB), followed by incubation at 37° C. for 4 hours. Four hours later, α-methylmannoside was added to the incubated medium to give a concentration of 20 mg/ml of α-methylmannoside. After stirring the medium, cells were separated and collected therefrom by centrifugation. The collected cells were suspended at a level of 3×10^6 cells/ml in a medium of the same composition as above, followed by placing the resulting cell suspension in 100 μl portions in a 96-well microplate.
Novel amino acid derivatives at various concentrations, which are shown in Table 4, were incorporated in an amount of 100 μl as the test compounds to the respective cell suspensions in the plate, followed by incubation at 37° C. for 3 days in an incubator under air atmosphere containing 5% of carbon dioxide. Meanwhile, eighteen hours before the completion of the incubation, a solution of 10μ Ci/ml of radioactively labeled thymidine (Thymidine "6-^3 H", a product of NEN Company) was added in an amount of 10 μl to the cell suspensions under incubation. The cells after the incubation were collected on a filter paper by means of a cell harvester, washed with water and radioactivity of the cells so treated was determined by a liquid scintillation counter. The determined values of the radioactivity of the cells as treated with the test compounds were evaluated on the assumption that the determined value of the radioactivity of the cells untreated, namely tested without addition of the test compound during the incubation of cells was amounting to 100. The so evaluated values are recorded and expressed as rates (%) for stimulating the T cell proliferation which show such extent that the proliferation of T cells is enhanced by the new amino acid derivative of this invention.

[1] = system: bone-marrow cells (hematopoietic stem cells; megakaryocytes); assay: Formation of colonies of megakaryocytes from bone-marrow cells (Test 3); assay type: cell-based, mouse (male BALB/c); details: Mus musculus, Bone marrow cell, 168 h, 7 days, no addition = 100, read-out: Number of colonies of megakaryocytes; for activity at 5 µg/mL: concentration of test compound 5 μg/ml; for activity at 50 µg/mL: concentration of test compound 50 μg/ml
Experimental: The activity of some amino acid derivatives of the general formula (I) according to this invention which induces proliferation of hematopoietic stem cells was tested in the following manner. Thus, bone-marrow cells had been prepared from the femurs of male BALB/c mouse (6-7 weeks old), and then a suspension of the bone-marrow cells was overlayed on "Lympholite M" (product of Cefalane Company), followed by centrifugation under 1500 g for 20 minutes. A lymphocyte fraction was collected, washed three times with "alpha MEM medium" (product of Gibco Company), and then diluted and suspended in the same medium as above to give a lymphocyte concentration of 7×10^6 cells/ml.
[…] of the resulting cell suspension, 50 μl of a solution of a test compound in physiological saline, 50 μl of a culture supernatant of WEHI-3, 100 μl of phosphate-buffered physiological saline, 50 μl of a pre-deionized 10% bovine serum albumin solution, 50 μl of an L-asparagin solution (200 μg/ml), 50 μl of a calcium chloride solution (260 μg/ml) and 50 μl of bovine plasma containing sodium citrate were combined together. The liquid mixture so obtained was poured in portions of 50 μl/well on a slide glass ("Glass Ware", product of Flaw Laboratory Company). After coagulation of the mixture, the slide glass bearing the coagulated masses was immersed in 10% FBS-added alpha MEM medium, followed by incubation at 37° C. under 5% CO2 for 7 days.
After completion of the incubation, the cells on the slide glass were immobilized with a 25% glutaraldehyde solution. In accordance with the methods proposed by Nagasawa et al. ["Zoketsu Kan Saibo (Hematopoietic Stem Cells)" compiled by takahisa Shimamaro, page 128 (The Nishimura Shoten Co., Ltd.)], the immobilized cells were stained for acetylcholinesterase activity which is specific for mouse megakaryocytes, and also the cells were stained with Mayer hematoxylin. Each cell culture so stained was dried and then sealed with a sealing agent. Under a microscope of ×100 magnification, the number of megakaryocytic colonies (i.e., the number of cells stained in an orange color) per well was counted.

[2] = system: Ehrlich ascites carcinoma; assay: Antitumor activity (Test 2), Ehrlich ascites carcinoma transplanted subcutaneously; assay type: in vivo, mouse (ICR); details: 0.5 mg/kg i.p. daily for 7 days; tumor weight on day 15 vs control
Experimental: The antitumor activity of some amino acid derivatives of the general formula (I) according to this invention was tested in the following manner. A suspension of Ehrlich ascites carcinoma cells was subcutaneously injected to one of the inguinal parts of each ICR mouse to transplant 4×10^6 cells/mouse. From the seventh day after the transplantation, a test compound was intraperitoneally injected daily for 7 days at a dose of 50, 5 or 0.5 mg/kg (4 mice per treated group of mice, but 8 mice per untreated control group of mice). On the fifteenth day after the transplantation, a solid cancer was cut out and weighed. A reduction in the weight of solid cancers of the mice in each treated group of mice which was evaluated in comparison with the control group is expressed as rate of inhibiting the tumor growth (%) in Table 5 below.

Compound	activity at 0.1 µg/mL (T cells) [%]	activity at 1 µg/mL (T cells) [%]	activity at 10 µg/mL (T cells) [%]	activity at 5 µg/mL [1] [%]	activity at 50 µg/mL [1] [%]	Tumor growth inhibiting rate [2] [%]
CC(CO)(NC(=O)C(O)C(C)(C)CO)C(=O)O (stereo not shown) [Compound 13]	405	352	465	177	–	–
CC(O)CC(=O)NC(C)(CO)C(=O)O (stereo not shown) [Compound 5]	313	370	439	–	178	–
CC(O)C(C)C(O)C(=O)NC(C)(C)C(=O)OCc1ccccc1 (stereo not shown) [Compound 25]	–	–	–	–	156	–
CC(CO)(NC(=O)C(O)C(C)(C)CO)C(=O)OCc1ccccc1 (stereo not shown) [Compound 15]	350	349	442	–	135	–
CC(O)C(C)C(O)C(=O)NC(CO)C(=O)OCc1ccccc1 (stereo not shown) [Compound 12]	265	185	242	105	–	37
CCC(C)CC(=O)NC(C)(CO)C(=O)O (stereo not shown) [Compound 1]	292	297	332	147	–	–
CC(NC(=O)C(O)C(C)C(C)O)C(=O)O (stereo not shown) [Compound 24]	–	–	–	136	–	–
CC(CO)(NC(=O)C(N)CCO)C(=O)O (stereo not shown) [Compound 27] (H-[hSer]-[αMeS]-OH; configuration not given here)	–	–	–	–	143	–
CC(O)C(C)C(O)C(=O)NC(CO)C(=O)O (stereo not shown) [Compound 11]	394	392	100	150	–	–
CCCCOC(=O)C(C)(CO)NC(=O)CCC(C)O (stereo not shown) [Compound 4]	133	135	100	–	–	–
CC(CC(=O)O)NC(=O)C(O)C(C)C(C)O (stereo not shown) [Compound 29]	–	–	–	–	121	–
CC(C)CC(NC(=O)C(O)C(C)C(C)O)C(=O)O (stereo not shown) [Compound 9]	175	157	196	–	145	–
CC(O)CCC(=O)NC(C)(CO)C(=O)O (stereo not shown) [Compound 3]	123	100	101	–	–	–
CC(C)C(O)C(C)C(O)C(=O)NC(C)(CO)C(=O)OCc1ccccc1 (stereo not shown) [Compound 17]	201	273	245	107	–	–

— US5798387A, “Amino acid derivatives” (Zaidan Hojin Biseibutsu Kagaku Kenkyu Kai, priority 1992, dated 1998)
